# Patent US20230285374A1, “THERAPEUTIC METHODS USING VADADUSTAT” (Akebia Therapeutics, Inc., priority 2019, published 2023)
# Tests used:
# [1] = test system: adult patients with NDD-CKD and anemia, actively treated with an ESA; experiment: Phase 3 ESA-treated NDD-CKD (Conversion) trial, vadadustat vs darbepoetin alfa; assay type: in vivo, human; details: Conversion study
# Description: (§1) Two global, Phase 3, randomized, open-label, active-controlled, sponsor-blind clinical trials were conducted to evaluate safety and efficacy of vadadustat (Compound 1) vs the ESA darbepoetin alfa in adult patients with NDD-CKD and anemia. Patients recruited into the ESA-untreated NDD-CKD trial (N=1761) had hemoglobin <10 g/dL and were not previously being treated with an ESA. Patients recruited into the ESA-treated NDD-CKD trial (N=1750) had hemoglobin ranges of 8-11 g/dL (US) or 9-12 g/dL (non-US) and were actively treated with an ESA for anemia associated with CKD. Trial periods in both trials included 1) correction/conversion (weeks 0-23); 2) maintenance (weeks 24-52); 3) long-term treatment (week 53 to end of treatment); and 4) safety follow-up (end-of-treatment to 4 weeks later). The primary safety endpoint was time to first adjudicated major adverse cardiovascular event, defined as all-cause mortality, non-fatal myocardial infarction or non-fatal stroke pooled across both trials. The primary efficacy endpoint in each trial was mean change in hemoglobin from baseline to primary evaluation period (weeks 24-36) comparing vadadustat vs darbepoetin alfa treatment arms. Demographics and baseline characteristics were similar among patients in both trials, and typical for a large proportion of the NDD-CKD population. These trials helped define the safety and efficacy of vadadustat, an oral hypoxia-inducible factor prolyl hydroxylase inhibitor for management of anemia associated with NDD-CKD.
# (§2) Two randomized, Phase 3, open-label, active-controlled clinical trials were conducted to evaluate the safety and efficacy of oral vadadustat versus injectable darbepoetin alfa: Correction (previously ESA-untreated) and Conversion (previously ESA-treated). Target enrollment for each was approximately 1850 patients recruited at approximately 390 and 480 sites in North America, Latin America, Europe, and the Asia Pacific for the ESA-untreated NDD-CKD trial and the ESA-treated NDD-CKD trial, respectively.
# (§3) Trial Populations. Each trial recruited adults (>18 years of age) with NDD-CKD (estimated glomerular filtration rate 60 mL/min/1.73 m^2). […] In addition to the hemoglobin entry criteria, all patients were required to have serum ferritin ≥100 ng/mL and transferrin saturation 20% at screening in order to be randomized. In the ESA-untreated NDD-CKD trial, ESA use was permitted during screening, as per standard of care; however, patients were excluded if they received any ESA within 8 weeks of randomization. In the ESA-treated NDD-CKD trial, patients were actively maintained on ESA therapy, with at least one dose received within 6 weeks before or during screening. […]
# [2] = test system: adult patients with NDD-CKD and anemia, not previously treated with an ESA; experiment: Phase 3 ESA-untreated NDD-CKD (Correction) trial, vadadustat vs darbepoetin alfa; assay type: in vivo, human; details: Correction study
# Description: as §1, §2, §3
# [3] = weeks 24 to 36, non-inferiority margin −0.75 g/dL
structure (smiles),measurement,setting,value
"O=C(O)CNC(=O)c1ncc(-c2cccc(Cl)c2)cc1O [Compound 1, Vadadustat]",mean (SD) Hb level,[1]; week 24 to week 36,10.77 (0.98) g/dL
same,mean (SD) Hb level,[1]; week 40 to week 52,10.80 (1.04) g/dL
same,least square mean difference in Hb (vadadustat vs darbepoetin alfa),[1]; [3],-0.01 g/dL
same,least square mean difference in Hb (vadadustat vs darbepoetin alfa),[1]; weeks 40 to 52,0.00 g/dL
same,mean (SD) Hb level,[2]; week 24 to week 36,10.39 (0.99) g/dL
same,mean (SD) Hb level,[2]; week 40 to week 52,10.48 (1.05) g/dL
same,least square mean difference in Hb (vadadustat vs darbepoetin alfa),[2]; [3],0.05 g/dL
same,least square mean difference in Hb (vadadustat vs darbepoetin alfa),[2]; weeks 40 to 52,0.04 g/dL
